For experiment [1], the target named is Inosine-5'-monophosphate dehydrogenase 2 (Homo sapiens, UniProt P12268). Nature of the experiment: Inhibitory activity tested against inosine-5'-monophosphate dehydrogenase 2 (IMPDH-II) enzyme.
The subject of a further experiment is CCRF-CEM. Put plainly: cells. The settings on record: Homo sapiens.

This is an account of results in ChEMBL document CHEMBL1136296, “3-cyanoindole-based inhibitors of inosine monophosphate dehydrogenase: synthesis and initial structure-activity relationships” (Bioorg Med Chem Lett, 2003).

Description for CCRF-CEM: Inhibition of CEM (human leukemia) cell proliferation.

The IC50 is the concentration that gives 50% inhibition. The low end stands for inhibition by little substance, the high end for a need for much substance. Molecule `COc1cc(NC(=O)Nc2cccc(C)c2)ccc1C#N` returned an IC50 in experiment [1] of 0.29 µM. The molecule `CC(=O)OCC(=O)N(C)c1ccccc1-c1cnc(Nc2ccc3c(C#N)cn(C)c3c2)o1` registered an IC50 in experiment [1] of 0.266 µM. Same read-out and setting: the figure for `COc1cc(Nc2ncc(-c3ccccc3)o2)ccc1C#N` is 0.4 µM. Regarding `CN(C)CCOC(=O)NCc1cccc(-c2cnc(Nc3ccc4c(C#N)cn(C)c4c3)o2)c1`, the IC50 amounted to 0.21 µM in experiment [1] and 1.4 µM in the experiment on CCRF-CEM. Regarding `Cn1cc(C#N)c2ccc(Nc3ncc(-c4cccc(CNC(=O)OCCC#N)c4)o3)cc21`, the IC50 in experiment [1] is 0.24 µM; in the experiment on CCRF-CEM, greater than 10 µM.

For the molecule `Cn1cc(C#N)c2ccc(Nc3ncc(-c4ccccc4CNC(=O)OC4CCOC4)o3)cc21` (configuration not stated), the IC50 in experiment [1] was 0.42 µM; in the experiment with CCRF-CEM it was greater than 10 µM. As to `Cc1cccc(-c2cnc(Nc3ccc4c(C#N)cn(C)c4c3)o2)c1`, the IC50 in experiment [1] was 0.49 µM; in the experiment on CCRF-CEM it was greater than 10 µM. Taken in the same sequence, the figures for `Cn1cc(C#N)c2ccc(Nc3ncc(-c4ccc(CN)cc4)o3)cc21` were 0.26 µM and 2.8 µM. Regarding `Cn1cc(C#N)c2ccc(Nc3ncc(-c4cccc(CNC(=O)c5cccc6ccccc56)c4)o3)cc21`, the IC50 in experiment [1] was 0.084 µM; in the experiment with CCRF-CEM, 2.5 µM. In turn, `Cc1cccc(NC(=O)Nc2ccc3c(C#N)cn(C)c3c2)c1` showed a half-maximal inhibitory concentration (IC50) in experiment [1] of 0.67 µM. On to `Cn1cc(C#N)c2ccc(Nc3ncc(-c4ccccc4CNC(=O)OCCC#N)o3)cc21`, for which the results for the IC50 (in experiment [1]; in the experiment with CCRF-CEM) were 0.42 µM and greater than 10 µM, respectively.

With `CC[C@H](CC#N)OC(=O)NCc1cccc(NC(=O)Nc2ccc(C#N)c(OC)c2)c1`, the IC50 in experiment [1] is 0.006 µM. Still for that read-out and setting: the figure for `Cc1ccccc1-c1cnc(Nc2ccc3c(C#N)cn(C)c3c2)o1` is 0.44 µM. Regarding `CC(=O)NCc1ccc(-c2cnc(Nc3ccc4c(C#N)cn(C)c4c3)o2)cc1`, the IC50 is 0.094 µM in experiment [1] and greater than 10 µM in the experiment on CCRF-CEM. Taken in the same sequence, the figures for `Cn1cc(C#N)c2ccc(Nc3ncc(-c4ccc(CNC(=O)C(C)(C)C)cc4)o3)cc21` were 0.18 µM and 4.9 µM. Taken in the same sequence, the figures for `Cn1cc(C#N)c2ccc(Nc3ncc(-c4cccc(CNC(=O)c5ccc6ccccc6c5)c4)o3)cc21` were 0.04 µM and 4.4 µM. Taken in the same sequence, the figures for `Cn1cc(C#N)c2ccc(Nc3ncc(-c4ccc(CNC(=O)c5ccccc5)cc4)o3)cc21` were 0.1 µM and greater than 10 µM. For the molecule `Cn1cc(C#N)c2ccc(Nc3ncc(-c4cccc(CN)c4)o3)cc21`, the figures for the IC50 (in experiment [1]; with CCRF-CEM) were 0.18 µM and 3.5 µM, respectively. Molecule `Cc1ccc(NC(=O)Nc2ccc3c(C#N)cn(C)c3c2)cc1` had an IC50 in experiment [1] of 0.23 µM. Regarding `Cn1cc(C#N)c2ccc(Nc3ncc(-c4cccc(NC(=O)c5ccccc5)c4)o3)cc21`, the results for the IC50 (in experiment [1]; in the experiment with CCRF-CEM) were 0.2 µM and 3.5 µM, respectively. Taken in the same sequence, the figures for `Cn1cc(C#N)c2ccc(Nc3ncc(-c4ccccc4)o3)cc21` were 0.033 µM and 8 µM. As for `Cc1ccc(-c2cnc(Nc3ccc4c(C#N)cn(C)c4c3)o2)cc1`, the IC50 in experiment [1] was greater than 0.55 µM.

`Cn1cc(C#N)c2ccc(NC(=O)Nc3ccccc3)cc21` came in with an IC50 in experiment [1] of 0.63 µM.

For `Cn1cc(C#N)c2ccc(Nc3ncc(-c4ccccc4CN)o3)cc21`, the 50% inhibitory concentration (IC50) was determined as 0.28 µM in experiment [1] and 1.1 µM in the experiment on CCRF-CEM. Taken in the same sequence, the figures for `Cn1cc(C#N)c2ccc(Nc3ncc(-c4cccc(CNC(=O)OC5CCOC5)c4)o3)cc21` (configuration not stated) were 0.26 µM and greater than 10 µM. Take `Cn1cc(C#N)c2ccc(Nc3ncc(-c4cccc(CNC(=O)c5ccccc5)c4)o3)cc21`: the IC50 in experiment [1] amounted to 0.13 µM; with CCRF-CEM, 5.3 µM. Regarding `COc1cc(Nc2ncc(-c3ccccc3)o2)ccc1-c1cnco1`, inhibition in experiment [1] was half-maximal at 0.016 µM (IC50). In the experiment on CCRF-CEM, `COc1cc(Nc2ncc(-c3ccccc3N(C)C(=O)CN3CCOCC3)o2)ccc1-c1cnco1` returned an IC50 of 0.52 µM. On to `COc1cc(NC(=O)Nc2cccc(CNC(=O)O[C@H]3CCOC3)c2)ccc1-c1cnco1` [MERIMEPODIB], for which the IC50 came out at 0.011 µM in experiment [1] and 0.49 µM with CCRF-CEM.
